Consider two compounds from patent US4221794A, “Method of imparting immunomodulating and antiviral activity” (Newport Pharmaceuticals International, Inc., priority 1979, dated 1980).

For one series, the system named is mouse lymphocytes. Kind of series: Mitogen (Con A) induced mouse lymphocyte (spleen cell) proliferation. It counts as cell-based. The settings on record: for Maximum Percent Change, Mitogen Induced (Con A) Mouse Lymph. Prolif.: plus = immunostimulating, minus = immunoinhibiting, 0 = neither. An excerpt:
The following three assay procedures are used to evaluate the ability of the test substances to modulate the activity of several classes of cells in the immune system. In these systems it is possible to identify both immunopotentiating activity (evidence by an enhancement of the parameter examined) as well as immunosuppressant activity (evidenced by an inhibition of the parameter examined).
1. Mitogen-Induced Mouse Spleen Cell Assay
Mouse spleen cells contain a population of both B and T lymphocytes which can be stimulated by a number of foreign substances (e.g., plant mitogens such as Con A) to proliferate. This enhanced proliferation is an indication of enhanced cell mediated immunity. The method below describes the system used to evaluate test substances as immunopotentiators.
Concanavalin A (Calbiochem, La Jolla, California), Lot #210073, lyophilized in NaCl, was prepared first as a 1% solution and diluted as a 2×concentration for each dilution (0.5, 1.0, 2.5 μg/ml).
Six to eight week old male Balb/c and C3 H inbred mice were obtained from the following sources: Flow Research Animals, Inc., Dublin, Virginia; Charles River Breeding Laboratories, Wilmington, Massachusetts; Laboratory Supply Company, Indianapolis, Indiana; and Lionel Strong Foundation, San Diego, California.
Three to five mice were sacrificed by cervical dislocation and the spleens aseptically removed. Pooled spleens were minced and teased with sterile forceps; then strained through a double layer of nylon mesh. The cell suspension was washed once with 15 ml of RPMI 1640 supplemented with 5% fetal calf serum and antibiotics. Cells were cultured at a concentration of 10^6 cells/0.1 ml/well in micro-plates. Cultures were incubated in the presence or absence of mitogen in a humidified atmosphere containing 5% CO2 for 48 hours. The test compound was added to cultures at various concentrations concommitant with mitogen.
Proliferation was assayed by the degree of incorporation of 1.0 μCi of [^3 H] thymidine over an 18 hour incubation period. Cultures were harvested by a MASH unit (Otto Hiller Co., Madison, Wisconsin) and thymidine incorporation was assayed by liquid scintillation spectrometry. Cultures were performed in triplicate and data are expressed as means plus or minus the standard error of the experimental means. Drug stimulation indices over control values were also calculated and portrayed graphically.
Table 4 above presents the results of an evaluation of a number of these subject compounds as potentiators of the immune response. Three different test systems were used. The first involves a measure of the ability of the test compound to enhance the ability of mouse lymphocytes to proliferate in response to a plant mitogen (Con A). The second involves measuring the ability of the test compounds to enhance human lymphocyte proliferation in response to a second plant mitogen (PHA). The third system measures the ability of these test substances to enhance macrophage proliferation in response to a natural lymphokine (MMF, Macrophage Mitogenic Factor).

The next series deals with L-1210 leukemic cells. The series is described as follows: Anti-leukemic activity, inhibition of L-1210 growth. The class given is cell-based, mouse. How it is done: Anti-Leukemic Activity (Inhibition of L-1210 Growth)
Leukemic cells isolated from mice bearing the L-1210 tumor are cultured in vitro and their growth can be measured by counting the number of cells in the culture over a period of time. The incorporation of a test substance into the media will prevent the growth of the leukemic cells, an indication of an effective anti-leukemic agent.
I50 (concentration of drug inhibiting growth of L-1210) by % for the tested compounds was as follows:
To Measure Inhibition of Leukemic Cell (L-1210) Growth
Check to see that there is adequate cell growth in the stock cultures. Use cells 48-72 hours after transfers are done.
Weigh out the drugs at 50 times the desired final concentration and made serial dilutions.
Make up the final medium using 500 mls McCoy's 5A medium, 15% fetal calf serum, 5 mls penicillin-streptomycin solution, and 5 mls antibiotic-antimycotic solution and let it stand at room temperature.
Using sterile technique, add 0.1 ml of the drug dilutions to each tube.
Add an appropriate quantity of cells to the prepared medium. After mixing, remove a 0.5 ml sample, place it in a vial containing […] of saline, and count it on the Coulter Counter. Multiply the count by 40 to compensate for the 40 fold dilution (0.5 ml into […] and record the inoculum.
Add 5 mls of cell suspension to each tube. Swirl the bottle every 4 tubes to insure a more uniform distribution of cells.
Tighten the caps and place in the CO2 incubator at 36°-38° for 96 hours.
After 96 hours remove the tubes from the incubator and count the contents of each on the Coulter Counter. Multiply all counts by 40 and average the four counts for each drug dilution. If the count is less than the inoculum, record 100% inhibition. If the count is greater than the average of the eight control counts, record 0% inhibition. For all other counts use the following formula: [formula] 100%-% servival=inhibition of growth due to treatment.

A further series concerns spleen cells. Kind of series: In vitro treatment of Con A stimulated mouse spleen cells. The class given is cell-based. The settings on record: for ability to augment Con A stimulation (in words): compound 1 μg/ml, Con A 5 μg/ml. How it is done: The following day, each group was sacrificed and the spleens removed and pooled. […] The cell concentration of each preparation was determined by a Coulter counter and adjusted to 5×10^6 cells/ml with RPMI medium.
Microtiter assays were carried out in 0.2 ml incubations, containing 5×10^5 cells and Con A or Con A and compounds at the indicated concentrations. All assays were performed with 6 replicates and compared with a blank assay containing only cells. The assay plates were incubated at 37° in 5% CO2 for 4 days. During the final 18-20 hours of incubation, 0.5 ml of ^3 HTdR (10 μCi/ml, 6 Ci /m mole) were added to each culture. The cultures were harvested with a multiple automatic sample harvester (MASH) unit and the incorporated ^3 HTdR determined with a Beckman LS 8000 liquid scintillation counter, as a measure of cell proliferation.

The structures appear in SMILES notation. Converted amounts (≈) assume the structure as drawn. A value given as a limit tells only on which side of the number the result lay.

With `CCCCCC[C@H]([C@H](C)O)n1cnc2c(=O)[nH]cnc21` (relative stereo) [NPT 15392, ERYTHRO-9-(2-HYDROXY-3-NONYL)HYPOXANTHINE], the “% Stimulation, Mitogen Induced Murine Lymphocyte Proliferation” value in the series on mouse lymphocytes (01-1.0 μg/ml) is recorded as over 50%; in the series with mouse lymphocytes (1.0-10 μg/ml) it was 30-50%; with mouse lymphocytes (10-100 μg/ml) it was 30-50%. Further, the “Maximum Percent Change, Mitogen Induced (Con A) Mouse Lymph. Prolif.” value is reported as 162% in the series with mouse lymphocytes (1.0-10 (unit not given)), -72% in the series on mouse lymphocytes (10-100 (unit not given)) and 172% with mouse lymphocytes (.01-1.0 (unit not given)). Besides, the IC50 with L-1210 leukemic cells (Mus musculus, L1210, tissue culture, read-out: 50% inhibition of L-1210 cells) turned out to be 28 µg/mL (≈ 101 µM). For the same compound, the fold induction at 1 µg/mL in the series with spleen cells (Mus musculus, 96 h, Con A 5 μg/l as printed, compound 1 μg/ml in vitro, read-out: stimulation over Con A alone) was 2.8. In addition, the “ability to augment Con A stimulation (in words)” value with spleen cells is “marked ability to augment the Con A stimulation”.

On to `CCCCCC[C@H]([C@H](C)O)n1cnc2c(=O)[nH]cnc21` (relative stereo) [NPT 15410], for which the “% Stimulation, Mitogen Induced Murine Lymphocyte Proliferation” value in the series with mouse lymphocytes (01-1.0 μg/ml) is over 50%; with mouse lymphocytes (1.0-10 μg/ml) it was 30-50%; in the series on mouse lymphocytes (10-100 μg/ml), 30-50%. In addition, the “Maximum Percent Change, Mitogen Induced (Con A) Mouse Lymph. Prolif.” value in the series on mouse lymphocytes (1.0-10 (unit not given)) is listed as 40%; in the series on mouse lymphocytes (10-100 (unit not given)) it was 40%; in the series with mouse lymphocytes (.01-1.0 (unit not given)) it was 140%. Besides, the “I50 (concentration of drug inhibiting growth of L-1210)” value with L-1210 leukemic cells (96 hours) is given as 54 micrograms/ml. For the same compound, the “Potentiation Anti-Leukemia by DIP.PAcBA salt” value in the series on L-1210 leukemic cells (salt compared with parent compound) was “Yes”. Further, in the series with L-1210 leukemic cells (tissue culture), the “50% inhibition of L-1210 cells” value was 54 µg/mL. Moreover, the “stimulation over Con A alone” value in the series with spleen cells (Con A 5 μg/l as printed, compound 1 μg/ml in vitro, 5760 min) came to 3.3 fold. Also, in the series on spleen cells, the “ability to augment Con A stimulation (in words)” value is reported as “marked ability to augment the Con A stimulation”.
